From the NIST ThermoML archive (doi:10.1016/j.jct.2011.05.033)
Numbers after ± are expanded uncertainties.

Tests used:
[1] = excess molar enthalpy (molar enthalpy of mixing); xn = mol fraction of the nth substance listed; details: 298.15 K, 101 kPa, Liquid, Isothermal Titration Calorimeter
[2] = xn = mol fraction of the nth substance listed; details: 298.15 K, 101 kPa, Liquid, Vibrating tube method

CCCCCC[n+]1ccn(C)c1.O=S(=O)([N-]S(=O)(=O)C(F)(F)F)C(F)(F)F + CCCCCCO
excess molar enthalpy ([1]; x2 = 0.0045): 0.00956 ± 0.000478 kcal/mol
excess molar enthalpy ([1]; x2 = 0.0089): 0.0189 ± 0.000717 kcal/mol
excess molar enthalpy ([1]; x2 = 0.0132): 0.0282 ± 0.0012 kcal/mol
excess molar enthalpy ([1]; x2 = 0.0176): 0.037 ± 0.00143 kcal/mol
excess molar enthalpy ([1]; x2 = 0.0219): 0.0459 ± 0.00191 kcal/mol
excess molar enthalpy ([1]; x2 = 0.0261): 0.0545 ± 0.00215 kcal/mol
excess molar enthalpy ([1]; x2 = 0.0304): 0.0629 ± 0.00263 kcal/mol
excess molar enthalpy ([1]; x2 = 0.0345): 0.071 ± 0.00287 kcal/mol
excess molar enthalpy ([1]; x2 = 0.0387): 0.0791 ± 0.00335 kcal/mol
excess molar enthalpy ([1]; x2 = 0.0428): 0.0868 ± 0.00359 kcal/mol
excess molar enthalpy ([1]; x2 = 0.0469): 0.0946 ± 0.00382 kcal/mol
excess molar enthalpy ([1]; x2 = 0.0509): 0.102 ± 0.00406 kcal/mol
excess molar enthalpy ([1]; x2 = 0.0549): 0.109 ± 0.00454 kcal/mol
excess molar enthalpy ([1]; x2 = 0.0589): 0.117 ± 0.00478 kcal/mol
excess molar enthalpy ([1]; x2 = 0.0629): 0.124 ± 0.00502 kcal/mol

CCn1cc[n+](C)c1.O=S(=O)([N-]S(=O)(=O)C(F)(F)F)C(F)(F)F + CCCCCCO
excess molar enthalpy ([1]; x2 = 0.0036): 0.00621 ± 0.000239 kcal/mol
excess molar enthalpy ([1]; x2 = 0.0072): 0.0117 ± 0.000478 kcal/mol
excess molar enthalpy ([1]; x2 = 0.0107): 0.0165 ± 0.000717 kcal/mol
excess molar enthalpy ([1]; x2 = 0.0142): 0.0206 ± 0.000956 kcal/mol
excess molar enthalpy ([1]; x2 = 0.0177): 0.0239 ± 0.000956 kcal/mol
excess molar enthalpy ([1]; x2 = 0.0212): 0.0265 ± 0.0012 kcal/mol
excess molar enthalpy ([1]; x2 = 0.0246): 0.0287 ± 0.0012 kcal/mol

CCCCCC[n+]1ccn(C)c1.O=S(=O)([N-]S(=O)(=O)C(F)(F)F)C(F)(F)F + CCCCO
excess molar enthalpy ([1]; x2 = 0.0064): 0.0141 ± 0.000717 kcal/mol
excess molar enthalpy ([1]; x2 = 0.0127): 0.0277 ± 0.0012 kcal/mol
excess molar enthalpy ([1]; x2 = 0.019): 0.0411 ± 0.00167 kcal/mol
excess molar enthalpy ([1]; x2 = 0.0252): 0.0543 ± 0.00215 kcal/mol
excess molar enthalpy ([1]; x2 = 0.0313): 0.0672 ± 0.00287 kcal/mol
excess molar enthalpy ([1]; x2 = 0.0373): 0.0796 ± 0.00335 kcal/mol
excess molar enthalpy ([1]; x2 = 0.0432): 0.092 ± 0.00382 kcal/mol
excess molar enthalpy ([1]; x2 = 0.0491): 0.104 ± 0.0043 kcal/mol
excess molar enthalpy ([1]; x2 = 0.0549): 0.116 ± 0.00478 kcal/mol
excess molar enthalpy ([1]; x2 = 0.0606): 0.127 ± 0.00526 kcal/mol
excess molar enthalpy ([1]; x2 = 0.0663): 0.138 ± 0.00574 kcal/mol
excess molar enthalpy ([1]; x2 = 0.0719): 0.149 ± 0.00621 kcal/mol
excess molar enthalpy ([1]; x2 = 0.0774): 0.16 ± 0.00645 kcal/mol
excess molar enthalpy ([1]; x2 = 0.0829): 0.171 ± 0.00693 kcal/mol
excess molar enthalpy ([1]; x2 = 0.0883): 0.181 ± 0.00741 kcal/mol

CCn1cc[n+](C)c1.O=S(=O)([N-]S(=O)(=O)C(F)(F)F)C(F)(F)F + CCCCO
excess molar enthalpy ([1]; x2 = 0.0051): 0.0103 ± 0.000478 kcal/mol
excess molar enthalpy ([1]; x2 = 0.0102): 0.0203 ± 0.000956 kcal/mol
excess molar enthalpy ([1]; x2 = 0.0152): 0.0304 ± 0.0012 kcal/mol
excess molar enthalpy ([1]; x2 = 0.0201): 0.0399 ± 0.00167 kcal/mol
excess molar enthalpy ([1]; x2 = 0.025): 0.0495 ± 0.00215 kcal/mol
excess molar enthalpy ([1]; x2 = 0.0299): 0.0586 ± 0.00239 kcal/mol
excess molar enthalpy ([1]; x2 = 0.0347): 0.0676 ± 0.00287 kcal/mol
excess molar enthalpy ([1]; x2 = 0.0395): 0.0765 ± 0.00311 kcal/mol
excess molar enthalpy ([1]; x2 = 0.0442): 0.0851 ± 0.00359 kcal/mol
excess molar enthalpy ([1]; x2 = 0.0488): 0.0935 ± 0.00382 kcal/mol
excess molar enthalpy ([1]; x2 = 0.0535): 0.102 ± 0.00406 kcal/mol
excess molar enthalpy ([1]; x2 = 0.0581): 0.11 ± 0.00454 kcal/mol
excess molar enthalpy ([1]; x2 = 0.0626): 0.118 ± 0.00478 kcal/mol
excess molar enthalpy ([1]; x2 = 0.0671): 0.125 ± 0.00502 kcal/mol
excess molar enthalpy ([1]; x2 = 0.0715): 0.133 ± 0.0055 kcal/mol

CCCCCC[n+]1ccn(C)c1.O=S(=O)([N-]S(=O)(=O)C(F)(F)F)C(F)(F)F + CCO
excess molar enthalpy ([1]; x2 = 0.0095): 0.0195 ± 0.000837 kcal/mol
excess molar enthalpy ([1]; x2 = 0.0189): 0.0383 ± 0.0016 kcal/mol
excess molar enthalpy ([1]; x2 = 0.0281): 0.0564 ± 0.00232 kcal/mol
excess molar enthalpy ([1]; x2 = 0.0371): 0.0739 ± 0.00311 kcal/mol
excess molar enthalpy ([1]; x2 = 0.046): 0.0907 ± 0.00382 kcal/mol
excess molar enthalpy ([1]; x2 = 0.0547): 0.107 ± 0.0043 kcal/mol
excess molar enthalpy ([1]; x2 = 0.0632): 0.123 ± 0.00502 kcal/mol
excess molar enthalpy ([1]; x2 = 0.0716): 0.138 ± 0.00574 kcal/mol
excess molar enthalpy ([1]; x2 = 0.0798): 0.152 ± 0.00621 kcal/mol
excess molar enthalpy ([1]; x2 = 0.0879): 0.166 ± 0.00669 kcal/mol
excess molar enthalpy ([1]; x2 = 0.0959): 0.18 ± 0.00741 kcal/mol
excess molar enthalpy ([1]; x2 = 0.1037): 0.193 ± 0.00789 kcal/mol
excess molar enthalpy ([1]; x2 = 0.1114): 0.206 ± 0.00837 kcal/mol
excess molar enthalpy ([1]; x2 = 0.1189): 0.218 ± 0.00884 kcal/mol
excess molar enthalpy ([1]; x2 = 0.1263): 0.23 ± 0.00932 kcal/mol

CCn1cc[n+](C)c1.O=S(=O)([N-]S(=O)(=O)C(F)(F)F)C(F)(F)F + CCO
excess molar enthalpy ([1]; x2 = 0.0083): 0.0143 ± 0.000717 kcal/mol
excess molar enthalpy ([1]; x2 = 0.0165): 0.0282 ± 0.0012 kcal/mol
excess molar enthalpy ([1]; x2 = 0.0245): 0.0416 ± 0.00167 kcal/mol
excess molar enthalpy ([1]; x2 = 0.0324): 0.0545 ± 0.00215 kcal/mol
excess molar enthalpy ([1]; x2 = 0.0402): 0.0669 ± 0.00287 kcal/mol
excess molar enthalpy ([1]; x2 = 0.0479): 0.0791 ± 0.00335 kcal/mol
excess molar enthalpy ([1]; x2 = 0.0554): 0.0908 ± 0.00382 kcal/mol
excess molar enthalpy ([1]; x2 = 0.0628): 0.102 ± 0.00406 kcal/mol
excess molar enthalpy ([1]; x2 = 0.0702): 0.113 ± 0.00454 kcal/mol
excess molar enthalpy ([1]; x2 = 0.0773): 0.124 ± 0.00502 kcal/mol
excess molar enthalpy ([1]; x2 = 0.0844): 0.134 ± 0.0055 kcal/mol
excess molar enthalpy ([1]; x2 = 0.0914): 0.144 ± 0.00598 kcal/mol
excess molar enthalpy ([1]; x2 = 0.0983): 0.154 ± 0.00621 kcal/mol
excess molar enthalpy ([1]; x2 = 0.105): 0.163 ± 0.00669 kcal/mol
excess molar enthalpy ([1]; x2 = 0.1117): 0.172 ± 0.00693 kcal/mol

CCCCCCCCCCn1cc[n+](C)c1.O=S(=O)([N-]S(=O)(=O)C(F)(F)F)C(F)(F)F + CO
mass density ([2]; x1 = 0.0001): 789.6 ± 1.6 kg/m3
mass density ([2]; x1 = 0.0233): 883.6 ± 1.8 kg/m3
mass density ([2]; x1 = 0.0513): 963.28 ± 1.9 kg/m3
mass density ([2]; x1 = 0.1054): 1054.89 ± 2.1 kg/m3
mass density ([2]; x1 = 0.1417): 1094.51 ± 2.2 kg/m3
mass density ([2]; x1 = 0.1679): 1115.13 ± 2.3 kg/m3
mass density ([2]; x1 = 0.2161): 1147.23 ± 2.3 kg/m3
mass density ([2]; x1 = 0.2452): 1163.25 ± 2.4 kg/m3
mass density ([2]; x1 = 0.297): 1183.51 ± 2.4 kg/m3
mass density ([2]; x1 = 0.4686): 1228.19 ± 2.5 kg/m3
mass density ([2]; x1 = 0.5186): 1236.02 ± 2.5 kg/m3
mass density ([2]; x1 = 0.762): 1263.65 ± 2.6 kg/m3
mass density ([2]; x1 = 0.7868): 1264.97 ± 2.6 kg/m3
mass density ([2]; x1 = 0.8756): 1271.49 ± 2.6 kg/m3
mass density ([2]; x1 = 0.9503): 1275.73 ± 2.6 kg/m3
mass density ([2]; x1 = 1): 1278.57 ± 2.6 kg/m3
excess molar enthalpy ([1]; x2 = 0.0171): 0.0146 ± 0.000717 kcal/mol
excess molar enthalpy ([1]; x2 = 0.0336): 0.028 ± 0.0012 kcal/mol
excess molar enthalpy ([1]; x2 = 0.0496): 0.0402 ± 0.00167 kcal/mol
excess molar enthalpy ([1]; x2 = 0.0651): 0.0511 ± 0.00215 kcal/mol
excess molar enthalpy ([1]; x2 = 0.08): 0.0614 ± 0.00263 kcal/mol
excess molar enthalpy ([1]; x2 = 0.0945): 0.0705 ± 0.00287 kcal/mol
excess molar enthalpy ([1]; x2 = 0.1086): 0.0789 ± 0.00335 kcal/mol
excess molar enthalpy ([1]; x2 = 0.1222): 0.0863 ± 0.00359 kcal/mol
excess molar enthalpy ([1]; x2 = 0.1354): 0.0932 ± 0.00382 kcal/mol
excess molar enthalpy ([1]; x2 = 0.1482): 0.0994 ± 0.00406 kcal/mol
excess molar enthalpy ([1]; x2 = 0.1606): 0.105 ± 0.0043 kcal/mol
excess molar enthalpy ([1]; x2 = 0.1727): 0.11 ± 0.00454 kcal/mol
excess molar enthalpy ([1]; x2 = 0.1844): 0.115 ± 0.00478 kcal/mol
excess molar enthalpy ([1]; x2 = 0.1958): 0.119 ± 0.00478 kcal/mol
excess molar enthalpy ([1]; x2 = 0.2069): 0.123 ± 0.00502 kcal/mol
